# Measured values as given in the supplement of paper PMC10307832.
# Tests used:
# Assay in all cases: relative viability (nuclei count vs DMSO), 5 days (fraction); higher = more cells survive
# Alisertib + Navitoclax = compound: COc1cc(Nc2ncc3c(n2)-c2ccc(Cl)cc2C(c2c(F)cccc2OC)=NC3)ccc1C(=O)O [Alisertib] + CC1(C)CCC(c2ccc(Cl)cc2)=C(CN2CCN(c3ccc(C(=O)NS(=O)(=O)c4ccc(N[C@H](CCN5CCOCC5)CSc5ccccc5)c(S(=O)(=O)C(F)(F)F)c4)cc3)CC2)C1 [Navitoclax] (partner 0.5 µM)
# How it was run: (§1)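 Medians of duplicate plates are given as relative viability. That measure is the nuclei count in treated wells divided by the count in vehicle wells. Counts were taken on 4× images of lung cancer cell lines in 1536-well plates, 5 days after pin-tool dosing the day after seeding with one drug alone or a fixed anchor-drug dose plus five library-drug doses (not always all listed) in √10 steps.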
# Alisertib + Linsitinib = compound: COc1cc(Nc2ncc3c(n2)-c2ccc(Cl)cc2C(c2c(F)cccc2OC)=NC3)ccc1C(=O)O [Alisertib] + C[C@]1(O)C[C@@H](c2nc(-c3ccc4ccc(-c5ccccc5)nc4c3)c3c(N)nccn32)C1 [Linsitinib] (partner 1 µM)
# How it was run: as §1
# Alisertib + Foretinib = compound: COc1cc(Nc2ncc3c(n2)-c2ccc(Cl)cc2C(c2c(F)cccc2OC)=NC3)ccc1C(=O)O [Alisertib] + COc1cc2c(Oc3ccc(NC(=O)C4(C(=O)Nc5ccc(F)cc5)CC4)cc3F)ccnc2cc1OCCCN1CCOCC1 [Foretinib] (partner 0.25 µM)
# How it was run: as §1
# Alisertib + Luminespib = compound: COc1cc(Nc2ncc3c(n2)-c2ccc(Cl)cc2C(c2c(F)cccc2OC)=NC3)ccc1C(=O)O [Alisertib] + CCNC(=O)c1noc(-c2cc(C(C)C)c(O)cc2O)c1-c1ccc(CN2CCOCC2)cc1 [Luminespib] (partner 0.01 µM)
# How it was run: as §1
Cell Line,relative viability (Alisertib + Navitoclax; first compound 0.005 µM),relative viability (Alisertib + Navitoclax; first compound 0.01581 µM),relative viability (Alisertib + Navitoclax; first compound 0.05 µM),relative viability (Alisertib + Navitoclax; first compound 0.1581 µM),relative viability (Alisertib + Navitoclax; first compound 0.5 µM),relative viability (Alisertib + Linsitinib; first compound 0.005 µM),relative viability (Alisertib + Linsitinib; first compound 0.01581 µM),relative viability (Alisertib + Linsitinib; first compound 0.05 µM),relative viability (Alisertib + Linsitinib; first compound 0.1581 µM),relative viability (Alisertib + Linsitinib; first compound 0.5 µM),relative viability (Alisertib + Foretinib; first compound 0.005 µM),relative viability (Alisertib + Foretinib; first compound 0.01581 µM),relative viability (Alisertib + Foretinib; first compound 0.05 µM),relative viability (Alisertib + Foretinib; first compound 0.1581 µM),relative viability (Alisertib + Foretinib; first compound 0.5 µM),relative viability (Alisertib + Luminespib; first compound 0.005 µM),relative viability (Alisertib + Luminespib; first compound 0.01581 µM),relative viability (Alisertib + Luminespib; first compound 0.05 µM),relative viability (Alisertib + Luminespib; first compound 0.1581 µM),relative viability (Alisertib + Luminespib; first compound 0.5 µM)
201T,1.25,1.19,1.21,1.07,0.425,0.99,1.07,1,0.745,0.348,1.14,0.997,1.02,0.453,0.271,1.16,0.971,0.816,0.576,0.362
A549,1.1,0.642,0.215,0.0692,0.0461,0.556,0.414,0.139,0.0745,0.0473,0.977,0.492,0.209,0.0402,0.0374,,,,,
A-427,0.897,0.907,0.26,0.167,0.158,1.07,0.986,0.257,0.202,0.184,0.877,0.777,0.197,0.182,0.178,0.916,0.576,0.243,0.141,0.209
ABC-1,,,,,,0.661,0.707,0.584,0.416,0.204,1.08,1.06,0.58,0.344,0.22,,,0.491,0.366,0.136
BEN,0.0634,0.063,0.0731,0.0469,0.0558,0.83,0.878,0.259,0.208,0.205,0.486,0.57,0.277,0.213,0.21,0.309,0.161,0.133,0.115,0.141
CAL-12T,1.15,0.568,0.208,0.141,0.165,0.741,0.603,0.187,0.157,0.162,0.995,0.821,0.231,0.231,0.212,0.412,0.205,0.1,0.169,0.188
COR-L23,0.921,0.965,0.576,0.198,0.105,0.794,0.799,0.401,0.178,0.121,0.848,0.823,0.606,0.243,0.128,0.585,0.568,0.303,0.0956,0.0981
COR-L 105,0.909,0.686,0.532,0.273,0.287,0.879,0.722,0.682,0.332,0.241,0.937,1.11,0.919,0.662,0.271,0.773,0.685,0.56,0.382,0.252
Calu-6,0.713,0.377,0.13,0.0974,0.107,0.733,0.763,0.295,0.129,0.162,0.855,0.599,0.228,0.155,0.137,,,,,
ChaGo-K-1,1.01,0.8,0.313,0.286,0.239,,,,,,0.922,0.845,0.237,0.21,0.192,0.565,0.451,0.258,0.169,0.217
EKVX,0.924,0.837,0.589,0.162,0.15,0.942,0.831,0.344,0.211,0.183,0.954,0.812,0.194,0.195,0.202,0.711,0.74,0.356,0.168,0.169
EMC-BAC-2,1.08,0.978,0.362,0.296,0.18,0.752,0.595,0.298,0.279,0.202,0.922,0.838,0.318,0.252,0.203,1.09,0.967,0.395,0.292,0.23
EPLC-272H,1.11,0.962,0.368,0.346,0.147,0.998,0.865,0.921,0.3,0.131,0.733,0.554,0.152,0.0794,0.133,0.275,0.166,0.122,0.112,0.134
H3255,0.484,0.415,0.355,0.0997,0.0929,0.898,0.832,0.418,0.192,0.164,0.823,0.821,0.573,0.219,0.177,0.753,0.841,0.522,0.259,0.212
HARA,1.15,1.14,0.544,0.281,0.0564,1.03,0.919,0.361,0.189,0.0844,0.864,0.663,0.316,0.148,0.101,0.682,0.428,0.209,0.0919,0.0942
HCC-15,0.657,0.517,0.27,0.12,0.103,0.863,0.725,0.275,0.159,0.113,0.999,0.627,0.184,0.139,0.129,0.327,0.371,0.167,0.108,0.128
HCC-44,1.04,0.949,0.509,0.412,0.14,0.73,0.683,0.42,0.328,0.113,,,,,,0.91,0.667,0.355,0.18,0.176
